In patent US20200157135A1, “SIDE-CHAIN MODIFIED ERGOSTEROL AND STIGMASTEROL DERIVATIVES AS LIVER X RECEPTOR MODULATORS” (Ospedale San Raffaele srl, priority 2017, published 2020):
Entries after “also recorded” stand apart in the source; their conditions may differ.

Columns and labels:
hLXRα = biological target: T1, hLXRα (Homo sapiens, UniProt Q13133); assay: luciferase assay with GAL-4 chimeric hLXRα receptor in human embryonic kidney 293 cells; format: cell-based
T1 sequence (Q13133 209-447 limits assumed): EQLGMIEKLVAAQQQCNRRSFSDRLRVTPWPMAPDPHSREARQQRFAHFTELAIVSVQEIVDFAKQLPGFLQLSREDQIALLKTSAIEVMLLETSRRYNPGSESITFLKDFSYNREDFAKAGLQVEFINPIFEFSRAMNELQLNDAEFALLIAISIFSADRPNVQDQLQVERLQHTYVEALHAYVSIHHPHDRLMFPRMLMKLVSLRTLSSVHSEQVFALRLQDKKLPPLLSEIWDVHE
Method: (§1) All the synthesized compounds were first tested for their ability to activate LXRs by using luciferase assays with GAL-4 chimeric receptors. These were performed by co-transfecting plasmids encoding hLXRα- and β-binding domains fused to GAL-4, with the respective responsive element conjugated with the luciferase reporter gene into the human embryonic kidney 293 cells.
(§2) Cell Culture and Co-transfection Assays. Human embryonic Kidney 293 cells (American Type Culture Collection) were cultured in Dulbecco's Modified Eagle's medium containing 10% of fetal bovine serum at 37° C. in humidified atmosphere of 5% CO2. HEK293 cells (4×10^4 cells per well) were transiently transfected in 48 well plate with the reporter plasmids pMH100X4-TK-luc (100 ng/well), Renilla (22 ng/well) together with 100 ng/well of pCMX-Gal4-RXR, pCMX-Gal4-PPAR-γ, pCMX-Gal4-PXR, pFA-CMV-FXR pCMX-Gal4-LXR-α or pCMX-Gal4-LXR-β plasmids using X-tremeGENE 9 DNA Transfection Reagent (Roche). Six hours after transfection, the cells were treated with the appropriate compound for 24 hours. Luciferase activities were analyzed by luciferase Dual Reporter Assay Systems (Promega) according to the manufacturer's protocol. GAL4-LXRs, GAL4-PPAR-γ, GAL4-RXR and TK-MHC100-luc plasmids were described in Villablanca et al.49 GAL4-PXR was a kind gift of Dr. Enrique Sainz (The Scripps Research Institute, La Jolla, USA). GAL4-FXR was a kind gift of Dr. Daniel Merk (Goethe-University Frankfurt am Main). The results obtained by luciferase assays and reported in Table 1 are from three to five independent experiments.
(§3) Statistical analysis. Data are expressed as mean±SEM and were analyzed for significance by ANOVA with Dunnet's multiple comparison tests. The analysis was performed with Prism software. Data in Table 1 are expressed as EC50±SD. In particular, the standard deviations were obtained by calculating the mean of the EC50 of each experiment (three to five independent experiments). The efficacy (%) of the compounds was calculated as the percentage of the compound effect, in terms of LXRα or β activation, versus 8 μM of 22R—HC±SD. The analyses were performed with Prism software.

hLXRβ = biological target: T2, hLXRβ (Homo sapiens, UniProt P55055); assay: luciferase assay with GAL-4 chimeric hLXRβ receptor in human embryonic kidney 293 cells; format: cell-based
T2 sequence (P55055 222-460 limits assumed): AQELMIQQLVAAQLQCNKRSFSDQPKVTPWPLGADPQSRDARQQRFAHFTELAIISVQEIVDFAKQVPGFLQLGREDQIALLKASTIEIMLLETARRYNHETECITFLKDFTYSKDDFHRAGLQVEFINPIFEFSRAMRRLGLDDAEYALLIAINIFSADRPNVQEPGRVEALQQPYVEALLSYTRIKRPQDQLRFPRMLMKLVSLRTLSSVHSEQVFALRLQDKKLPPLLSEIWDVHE
Method: as §1, §2, §3

ABCA1 [1] = assay: qPCR of ABCA1 expression in PMA-differentiated U937 cells; format: cell-based, human; conditions: U937 differentiated with PMA 72 h; 10 μM, 6 hours
Method: (§4) U937 cells differentiated with PMA for 72 hours were treated with T0901317 (10 μM), 22R—HC (3) or with the tested compound (10 μM). […] (n=3/group). *p<0.05, **p<0.01, ***p<0.001.
(§5) LXR agonists induce the expression of target genes, which are involved in cholesterol homeostasis, particularly in the reverse cholesterol transport pathway.43 Indeed, LXR agonists induce the expression of ABCA1 both in macrophages and in many tissues of the periphery such as the intestine.44 Moreover, ABCA1 regulates cholesterol efflux to APOAI acceptors.45 In the liver, LXR activation promotes the biosynthesis of fatty acids, a process also termed as de novo lipogenesis by inducing the expression of the master regulator of hepatic lipogenesis sterol-regulatory element-binding protein 1C (SREBP-1c), as well as several downstream genes in the SREBP-1c pathway, including steroyl CoA desaturase 1 (SCD1) and fatty acid synthase (FASN).43 Therefore, it was investigated, by quantitative PCR (qPCR), the expression of ABCA1, SREBP1c, FASN, and SCD1, by using RNA from monocytic U937 cells (FIG. 3) and from hepatic HepG2 cells (FIG. 4) stimulated with our compounds, the non-steroidal agonist T0901317 or the endogenous ligand 22R—HC (3) as positive controls. […] Then, the induction of genes involved in the lipogenesis using the hepatic cell line HepG2. 43,22 was evaluated. […] Over the time, indeed, substantial efforts have been dedicated to the identification of LXR ligands able to turning on ABC transporter genes, without affecting lipogenic genes levels. This task is still one of the major challenge to the discovery of a clinically useful LXR modulator for atherosclerosis.
(§6) Quantitative Real-Time-PCR. U937 cell line was differentiated in foam macrophages with phorbol 12-myristate 13-acetate (PMA) 10 ng/ml (Sigma) for 72 hours at 37° C. in […] at the concentration of 3×10^6 cells in 10 ml RPMI 10% FBS. At day 3 nuclear receptor ligands were added for 6 hours. HepG2 cells were treated with the ligands as described by Quinet et al.22 Total RNA was purified by TRIZOL (Invitrogen, Carlsbad, Calif., USA). Reverse transcription was performed incubating 2 μg of total RNA 1 hour at 42° C. with MLV-reverse transcriptase (Promega). Quantitative PCR was performed using Sybr Green Master Mix (Applied Biosystems) and real-time PCR (Viia 7 Real Time PCR System, Applied Biosystems). All PCR reactions were done in triplicate. The comparative Ct method was used to quantify transcripts that were normalized for human GAPDH. the following primer pairs were used: […]

SREBP1c [2] = assay: qPCR of SREBP1c expression in PMA-differentiated U937 cells; format: cell-based, human; conditions: U937 differentiated with PMA 72 h; 10 μM, 6 hours
Method: as §4, §5, §6

SCD1 = assay: qPCR of SCD1 expression in PMA-differentiated U937 cells; format: cell-based, human; conditions: U937 differentiated with PMA 72 h; 10 μM, 6 hours
Method: as §4, §5, §6

SREBP1c [3] = assay: qPCR of SREBP1c expression in HepG2 cells; format: cell-based, human; conditions: 10 μM
Method: HepG2 cells were treated with T0901317 (10 μM), 22R—HC (3) (10 μM) or with the tested compound (10 μM). […] (n=3/group). *p<0.05, **p<0.01, ***p<0.001.
LXR agonists induce the expression of target genes, which are involved in cholesterol homeostasis, particularly in the reverse cholesterol transport pathway.43 Indeed, LXR agonists induce the expression of ABCA1 both in macrophages and in many tissues of the periphery such as the intestine.44 Moreover, ABCA1 regulates cholesterol efflux to APOAI acceptors.45 In the liver, LXR activation promotes the biosynthesis of fatty acids, a process also termed as de novo lipogenesis by inducing the expression of the master regulator of hepatic lipogenesis sterol-regulatory element-binding protein 1C (SREBP-1c), as well as several downstream genes in the SREBP-1c pathway, including steroyl CoA desaturase 1 (SCD1) and fatty acid synthase (FASN).43 Therefore, it was investigated, by quantitative PCR (qPCR), the expression of ABCA1, SREBP1c, FASN, and SCD1, by using RNA from monocytic U937 cells (FIG. 3) and from hepatic HepG2 cells (FIG. 4) stimulated with our compounds, the non-steroidal agonist T0901317 or the endogenous ligand 22R—HC (3) as positive controls. […] 43,22 was evaluated. […]
Quantitative Real-Time-PCR. […] The comparative Ct method was used to quantify transcripts that were normalized for human GAPDH. the following primer pairs were used: […]

TNFα = assay: qPCR of TNFα expression in differentiated U937 cells treated with LPS; format: cell-based, human; conditions: differentiated U937, 6 hours, 10 μM in combination with LPS (100 ng/ml)
Method: U937 cells differentiated with PMA for 72 hours were treated with LPS (100 ng/ml) in combination with T0901317 (10 μM) or with the title compounds (10 μM). […] (n=3/group). *p<0.05, **p<0.01, ***p<0.001.
as §6

[4] = test system: murine Lewis lung carcinoma cells (LLC); assay: growth of LLC tumor cells in vitro; format: cell-based; conditions: 96 hours, 10 μM
From the text: (§7) We have performed a set of experiments to evaluate whether some LXR modulators, particularly PFM009 (13) and PFM018 (25) influence the growth of the murine Lewis lung carcinoma cells (LLC) in vitro and in vivo.

Abca1 [5] = assay: qPCR of LXR target gene Abca1 in LLC tumor cells; format: cell-based, murine
From the text: as §7

LLC tumor = LLC tumor growth in vivo in C57BL/6 mice; conditions: 1×10^6 LLC cells subcutaneously, 30 mg/Kg/day for five consecutive days from day six
Method: Then, we tested whether these compounds could influence LLC tumor growth in vivo. To do that, C57BL/6 mice were challenged with 1×10^6 LLC tumor cells subcutaneously. Six days later, tumor-bearing mice were treated with PFM009 or PFM018 (30 mg/Kg/day) for five consecutive days and then evaluated for tumor growth.

hFXR = assay: luciferase assay GAL4-hFXR in human embryonic kidney 293 cells; format: cell-based; conditions: compounds at 10 μM
Method: Human embryonic kidney 293 cells were co-transfected with GAL4-hRXR (A), GAL4-hPPARγ (B), GAL4-hPXR (C) and GAL4-hFXR (D) expression plasmids together with GAL4 responsive element pMHC100X4-TK-luc and Renilla plasmids. Cells were incubated with vehicle (DMSO), PFMs at the concentration of 10 μM, and the nuclear receptor specific ligands 9cis retinoic acid (100 nM) (A), Rosiglitazone (RSG 100 nM) (B), T0901317 (100 nM) (C) and GW4064 (100 nM) (D) for six hours. The values represent mean±S.D. RLA, relative luciferase activity.
The selectivity of our compounds within the nuclear receptor superfamily was also evaluated by luciferase assays using GAL4-RXR, -PPARγ, -PXR and -FXR plasmids.
Cell Culture and Co-transfection Assays. Human embryonic Kidney 293 cells (American Type Culture Collection) were cultured in Dulbecco's Modified Eagle's medium containing 10% of fetal bovine serum at 37° C. in humidified atmosphere of 5% CO2. […] Luciferase activities were analyzed by luciferase Dual Reporter Assay Systems (Promega) according to the manufacturer's protocol. […]

Row | Compound | EC50 (hLXRα; GAL4-hLXRα luciferase, HEK293, dose-response 32-1 μM, mean of three-five independent experiments, read-out: LXRα EC50 (μM) ± SD) | Emax (hLXRα; HEK293, 24 h, read-out: LXRα Efficacy (%) ± SD) | LXR isoform selectivity profile (hLXRα; LXRα versus LXRβ, GAL4 luciferase assays) | EC50 (hLXRβ; GAL4-hLXRβ luciferase, HEK293, dose-response 32-1 μM, mean of three-five independent experiments, read-out: LXRβ EC50 (μM) ± SD) | Emax (hLXRβ; HEK293, 24 h, read-out: LXRβ Efficacy (%) ± SD, % of compound effect versus 8 μM of 22R-HC) | ABCA1 expression (ABCA1 [1]) | SREBP-1c up-regulation (SREBP1c [2]) | SCD1 expression (SCD1) | SREBP-1c up-regulation (SREBP1c [3]) | inhibition of TNFα expression (TNFα) | LLC tumor growth in vitro [4] | expression of the LXR target gene Abca1 (Abca1 [5]) | LLC tumor growth in vivo (LLC tumor) | FXR activation (hFXR)
1 | CC[C@@H](C(C)C)[C@H]1O[C@@H]1[C@@H](C)[C@H]1CC[C@H]2[C@@H]3CC=C4C[C@@H](O)CC[C@]4(C)[C@H]3CC[C@]12C [Compound 13, (22R,23R)-22,23-Epoxystigmast-5-ene-3β-ol] | 2.09 ± 0.57 µM | 489 ± 89.1% | non-selective and poorly preferential LXRα agonists; also recorded: non-selective ligands; also recorded: non-selective LXR agonists | 3.79 ± 0.82 µM | 142 ± 16.8% | strong induction of ABCA1 expression | poor activators of SREBP1c and SCD1 | poor activators of SREBP1c and SCD1 | significant up-regulation of SREBP-1c | the most active | not able to alter LLC tumor growth in vitro | induced the expression of the LXR target gene Abca1 | significant control of LLC tumor growth | –
2 | CC[C@H](C[C@@H](O)[C@@H](C)[C@H]1CC[C@H]2[C@@H]3CC=C4C[C@@H](O)CC[C@]4(C)[C@H]3CC[C@]12C)C(C)C [Compound 20, (22R)-3β-stigmast-5-ene-3,22-diol] | – | – | – | – | – | strong induction of ABCA1 expression | poor activators of SREBP1c and SCD1 | poor activators of SREBP1c and SCD1 | – | – | – | – | – | strong FXR activation
